Laboratory results taken from patent US6579880B2, “Isoxazoles and oxadiazoles as anti-inflammatory inhibitors of IL-8” (Ortho-McNeil Pharmaceutical, Inc., priority 2000, dated 2003).
pIC50: −log10 of the molar value.

These compounds were tested on IL-8 receptor (purified human neutrophils) (assay: radio labeled IL-8 receptor binding assay in purified human neutrophils using I125-IL-8 as ligand). Conditions: Table 1; inhibition of I125-IL-8 (0.125 nM) binding to human neutrophils, 37° C. 60 minutes; read-out: IC50.
Procedure: Neutrophils are purified from fresh human blood by dextran sedimentation in an equal volume of 3% dextran in saline for 30 minutes. After sedimentation, the blood is centrifuged for 10 minutes at 1000 rpm at 4° C. and the supernate is aspirated and discarded. […] Ten mls ficoll is underlaid of the blood and the sample is centrifuged for 40 minutes at 1400 rpm at 25° C. After centrifugation, the supernate is removed and the cells re-suspended for cell counting. Cell volume is adjusted to 8×10^5 cells/ml in binding buffer without BSA.
The plates are then incubated at 37° C. for 60 minutes and the supernate is aspirated to within 2 mm of the bottom of the well. The plates are then sealed and counted for 1 minute in a Packard TopCount.
Drug treated wells are compared to vehicle treated wells for inhibition of binding as determined by a decrease in dpm as compared to the vehicle wells.
% Inhibition is calculated as follows: [formula]
IC50 is calculated using K-Graph.

pIC50 | Compound
5.57 | CN1CCN(CCCOc2ccc(-c3cc(-c4ccc(C(C)(C)C)cc4)no3)cc2)CC1 [Compound 4, piperazine, 1-[3-[4-[3-[4-(1,1-dimethylethyl)phenyl]-5-isoxazolyl]phenoxy]propyl]-4-methyl-]
5.57 | CN1CCN(CCCOc2ccc(-c3cc(-c4ccc(Cl)c(C(F)(F)F)c4)no3)cc2)CC1 [Compound 8, piperazine, 1-[3-[4-[3-[4-chloro-3-(trifluoromethyl)phenyl]-5-isoxazolyl]phenoxy]propyl]-4-methyl-]
5.55 | Clc1ccc(-c2noc(-c3ccc(OCCCN4CCNCC4)cc3)n2)cc1 [Compound 15, piperazine, 1-[3-[4-[3-(4-chlorophenyl)-1,2,4-oxadiazol-5-yl]phenoxy]propyl]-]

Same assay, conditions: Table 2; inhibition of I125-IL-8 (0.125 nM) binding to human neutrophils, 37° C. 60 minutes; read-out: IC50

Compound | pIC50
Cc1ccc(-c2cc(-c3ccc(OCCCN(C)C)cc3)no2)cc1 [Compound 19] | 5.29
CN(C)CCCOc1ccc(-c2cc(-c3ccc(Cl)cc3)on2)cc1 [Compound 21, 1-propanamine, 3-[4-[5-(4-chlorophenyl)-3-isoxazolyl]phenoxy]-N, N-dimethyl-] | 5.57
CN(C)CCCOc1ccc(-c2cc(-c3ccc(F)cc3)on2)cc1 [Compound 22] | 5.51
CN1CCN(CCCOc2ccc(-c3cc(-c4ccccc4)on3)cc2)CC1 [Compound 25] | 5.21
CN1CCN(CCCOc2ccc(-c3cc(-c4ccc(Cl)cc4)on3)cc2)CC1 [Compound 27, piperazine, 1-[3-[4-[5-(4-chlorophenyl)-3-isoxazolyl]phenoxy]propyl]-4-methyl-] | 5.80
CN(C)CCCOc1ccc(-c2noc(-c3ccccc3)c2Cl)cc1 [Compound 29] | 5.22
CN(C)CCCOc1cccc(-c2cc(-c3ccc(Cl)cc3)on2)c1 [Compound 32] | 5.09
CN(C)CCCOc1cccc(-c2cc(-c3ccccc3)on2)c1 [Compound 34] | 4.99
CN1CCN(CCCOc2ccccc2-c2cc(-c3ccccc3)on2)CC1 [Compound 35] | 4.92
CN1CCN(CCCCOc2ccc(-c3cc(-c4ccc(Cl)cc4)on3)cc2)CC1 [Compound 39] | 5.05
CN(C)CCCCOc1ccc(-c2cc(-c3ccc(Cl)cc3)on2)cc1 [Compound 40] | 5.41
CN1CCN(CCCCOc2ccccc2-c2cc(-c3ccc(Cl)cc3)on2)CC1 [Compound 41] | 4.96

The next lines start with the values.

pIC50 | Compound
4.96 | CN(C)CCCOc1ccc(-c2noc(-c3ccccc3)c2Br)cc1 [Compound 28]
5.29 | Cc1ccc(-c2cc(-c3cccc(OCCCN(C)C)c3)no2)cc1 [Compound 33]
5.25 | CN1CCN(CCCOc2ccccc2-c2cc(-c3ccc(Cl)cc3)on2)CC1 [Compound 36]
5.19 | CCN(CC)CCCOc1ccccc1-c1cc(-c2ccccc2)on1 [Compound 37]
5.36 | CN(C)CCCOc1ccccc1-c1cc(-c2ccc(Cl)cc2)on1 [Compound 38]

Same assay, conditions: Table 3; inhibition of I125-IL-8 (0.125 nM) binding to human neutrophils, 37° C. 60 minutes; read-out: IC50

pIC50 | Compound
5.28 | CN1CCCC(COc2ccc(-c3cc(-c4ccccc4)on3)cc2)C1 (stereo not shown) [Compound 43]
5.12 | CN1CCC(Oc2ccc(-c3cc(-c4ccccc4)on3)cc2)CC1 [Compound 44]

Same assay, conditions: Table 4; inhibition of I125-IL-8 (0.125 nM) binding to human neutrophils, 37° C. 60 minutes; read-out: IC50

pIC50 | Compound
5.24 | CN(C)CCCNC(=O)c1ccc(-c2cc(-c3ccc(Cl)cc3)on2)cc1 [Compound 45]
5.21 | CN1CCN(CCCNC(=O)c2ccc(-c3cc(-c4ccc(Cl)cc4)on3)cc2)CC1 [Compound 46]
4.74 | COc1ccc(-c2cc(-c3ccc(C(=O)NCCCN(C)C)cc3)no2)cc1 [Compound 48]

Same assay, conditions: Table 6; inhibition of I125-IL-8 (0.125 nM) binding to human neutrophils, 37° C. 60 minutes; read-out: IC50

pIC50 | Compound
5.27 | CN(C)CCCNc1ccc(-c2nc(-c3ccc(Cl)cc3)no2)cn1 [Compound 54, 1,3-propanediamine, N^1-[5-[3-(4-chlorophenyl)-1,2,4-oxadiazol-5-yl]-2-pyridinyl]-N^3, N^3-dimethyl-]
5.32 | CN(C)CCCOc1ccc(-c2nc(-c3ccc(Cl)cc3)no2)cn1 [Compound 55]

Same assay, conditions: unlabelled IL-8 as standard in the I125-IL-8 binding assay; read-out: IC50 of standard antagonist

pIC50 | Compound
~9.00 | Unlabelled IL-8: Unlabelled IL-8 (Interleukin-8, chemotactic cytokine) serves as the standard antagonist in the binding assay [reference compound]
